In patent US11453897B2, “Method for producing aminobenzoic acid or an aminobenzoic acid derivative product” (Covestro Intellectual Property GmbH & Co. KG, priority 2018, dated 2022):

Assay: Dissolution of calcium ortho-aminobenzoate by salt exchange with ammonium ions (ammonium carbonate stock solution)
Format: physicochemical
Method: 48.0 g of anhydrous calcium chloride was added to 1.00 L of fermentation broth. The pH was adjusted to a value of 7.0 by adding hydrochloric acid. 100 g of ortho-aminobenzoic acid (dissolved in sodium hydroxide solution at pH 7.0) was then added to this mixture by adding 200 mL of oAB STOCK SOLUTION. There was briefly precipitation of calcium ortho-aminobenzoate. The concentration of dissolved ortho-aminobenzoic acid measured in the aqueous phase was 18.0 g/L. The solids fraction of the mixture was filtered off and dried at 80° C. for 48 h. In this way, 110 g of dried solid material was obtained. 20.0 g of that was added to 50.0 mL of AMMONIUM STOCK SOLUTION 1, the mixture was stirred and the concentration of dissolved ortho-aminobenzoic acid was determined. The latter was 146 g/L.
48.0 g of anhydrous calcium chloride was added to 800 mL of water. The pH was adjusted to a value of 7.0 by adding hydrochloric acid. […] The concentration of dissolved ortho-aminobenzoic acid measured in the aqueous phase was 18.0 g/L. The solids fraction of the mixture was filtered off and dried at 80° C. for 48 h. […] 20.0 g of that was added to 25.0 mL of AMMONIUM STOCK SOLUTION 2, the mixture was stirred and the concentration of dissolved ortho-aminobenzoic acid was determined.

With calcium ortho-aminobenzoate the “concentration of dissolved ortho-aminobenzoic acid after salt exchange” value (20.0 g dried solid in 25.0 mL ammonium carbonate 210 g/L (Example 2)) was 175000 µg/mL and the “concentration of dissolved ortho-aminobenzoic acid after salt exchange” value (20.0 g dried solid in 50.0 mL ammonium carbonate 105 g/L (Example 1)) was 146000 µg/mL.
